Measured values published in patent US20220241228A1, “Treatment of cholangiopathies” (CymaBay Therapeutics, Inc., priority 2021, published 2022).
Where two headings read alike, the source gives them in different places.

Legend:
PPARα = molecular target: T1, PPARα (Homo sapiens, UniProt Q07869); assay: Specificity of seladelpar compared with PPARα; format: biochemical; settings: PPARδ versus PPARα
T1 sequence (Q07869 1-468): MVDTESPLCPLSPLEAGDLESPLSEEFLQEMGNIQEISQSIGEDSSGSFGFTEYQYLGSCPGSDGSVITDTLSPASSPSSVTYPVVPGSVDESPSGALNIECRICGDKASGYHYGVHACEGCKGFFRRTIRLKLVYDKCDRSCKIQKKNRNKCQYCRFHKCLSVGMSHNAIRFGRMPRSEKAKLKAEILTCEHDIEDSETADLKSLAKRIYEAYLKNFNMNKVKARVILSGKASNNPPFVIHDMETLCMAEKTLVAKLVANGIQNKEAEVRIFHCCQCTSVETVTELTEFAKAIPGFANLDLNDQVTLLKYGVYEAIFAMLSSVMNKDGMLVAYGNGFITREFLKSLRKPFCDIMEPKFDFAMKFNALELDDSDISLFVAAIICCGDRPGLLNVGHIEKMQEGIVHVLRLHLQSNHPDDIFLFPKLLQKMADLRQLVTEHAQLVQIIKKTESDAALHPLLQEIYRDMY
Text: It is specific (>600-fold and >2500-fold compared with PPARα and PPARγ receptors). PPARδ activation stimulates fatty acid oxidation and utilization, improves plasma lipid and lipoprotein metabolism, glucose utilization, and mitochondrial respiration, and preserves stem cell homeostasis.

[1] = test system: Subjects with primary biliary cholangitis; assay: Pooled open-label Phase 2 and placebo-controlled Phase 3 studies of seladelpar in PBC subjects intolerant of, or with inadequate response to, obeticholic acid and/or a fibrate; format: in vivo, human; settings: for Composite endpoint met / ALP ≤ ULN / Mean change in ALT / Mean change in TBIL / Mean change in ALP: three months; for Composite endpoint met: ALP <1.67×ULN, >15% decrease in ALP, and TBIL ULN; for Mean change in ALP: from baseline
Text: The trial subjects were adult, male or female, with a diagnosis of PBC by at least two of the following three criteria: (a) a history of ALP above the upper limit of normal (ULN) for at least six months, (b) positive anti-mitochondrial antibody titers > 1/40 on immunofluorescence or M2 positive by enzyme linked immunosorbent assay or positive PBC-specific antinuclear antibodies, and (c) documented liver biopsy result consistent with PBC, on a stable and recommended dose of UDCA for the past twelve months or UDCA intolerant, and ALP ≥1.67×ULN. Exclusion criteria included AST or ALT ≥3×ULN, TBIL ≥2×ULN, autoimmune hepatitis or a history of chronic viral hepatitis, PSC, the current use of fibrates or simvastatin, the use of colchicine, methotrexate, azathioprine, or systemic steroids in the previous two months, the use of an experimental treatment for PBC, and the use of an experimental or unapproved immunosuppressant. […] Efficacy was assessed on subjects treated for three months. The composite endpoint was the responder rate for subjects achieving ALP <1.67×ULN, >15% decrease in ALP, and TBIL ULN. Additional endpoints were ALP ULN, ALP change from baseline, and other markers of liver function. Safety was assessed over one year. […] Fifty-one subjects were treated for 3 months; and 37 were assessed; with results in the table below: A safety analysis was performed on all 71 subjects.

subjects with PSC = assay: Randomized placebo-controlled 24-week trial in primary sclerosing cholangitis (Example 2); format: in vivo, human; settings: 5, 10, or 20 mg/day orally once/day for 24 weeks
Protocol: Trial subjects are adult, male or female, with a diagnosis of PSC by at least two of the following three criteria: (a) historical evidence of an elevated AP >ULN from any prior laboratory result, (b) liver biopsy consistent with PSC, and (c) abnormal cholangiography consistent with PSC as measured by MRCP, ERCP, or percutaneous transhepatic cholangiography; on a stable and recommended dose of UDCA ≤20 mg/Kg/day for the past six months or at least twelve weeks off UDCA treatment; and intolerant of, or having an inadequate response to, obeticholic acid and/or a fibrate. Other criteria include ALP ≥1.5×ULN, TBIL ≤2×ULN, ALT and AST both ≤5×ULN, eGFR >60 mL/min/1.73 m^2, platelets ≥140×10^3/μL, INR ≤1.3 (in the absence of warfarin or other anticoagulant therapy), and albumin ≥3.5 g/dL. Exclusion criteria include clinically significant acute or chronic liver disease of an etiology other than PSC, a diagnosis of overlapping autoimmune hepatitis (AIH) and PSC, secondary or IgG4 related sclerosing cholangitis, small duct PSC, presence of a cholangiocarcinoma on cholangiography or MRI, bile duct stenting, history, evidence, or high suspicion of cholangiocarcinoma or other hepatobiliary malignancy, presumptive or diagnosed acute cholangitis within twelve weeks, and evidence of compensated or decompensated cirrhosis. […]

[2] = test system: patients with primary biliary cholangitis; settings: over a 52-week period; cited from earlier work
PBC patients [3] = settings: 12-month trial, cited from earlier work
PBC patients [4] = settings: cited from earlier work
[5] = PBC subjects intolerant of, or inadequate response to, obeticholic acid and/or a fibrate

For `CCO[C@H](COc1ccc(C(F)(F)F)cc1)CSc1ccc(OCC(=O)O)c(C)c1` [Seladelpar, [4-({(2R)-2-ethoxy-3-[4-(trifluoromethyl)phenoxy]propyl}sulfanyl)-2-methylphenoxy]acetic acid], the “specificity compared with PPARα” value (PPARα) was > 600 fold, the “Pruritus adverse events experienced” value ([1]; 5 mg/day orally once/day) was 15% and the Composite endpoint met ([1]; 5 mg/day orally once/day as L-lysine dihydrate salt) was 40%. The “ALP ≤ ULN” value ([1]; 5 mg/day orally once/day) was 0, the “Mean change in ALT” value ([1]; 5 mg/day orally once/day) was −13% and the “Mean change in TBIL” value ([1]; 5 mg/day orally once/day) was −3%. The “Mean change in ALP” value ([1]; 5 mg/day orally once/day) was −31%, the “subjects who experienced a serious adverse event” value ([1]; 5 mg/day, safety analysis on all 71 subjects, all unrelated to seladelpar) was “three” and the “subjects who discontinued treatment due to adverse events” value ([1]; 5 mg/day, safety analysis on all 71 subjects, one ALT/AST elevation, one gastroesophageal reflux disease) was “two”. For the same molecule, the “Pruritus adverse events experienced” value ([1]; 10 mg/day orally once/day) was 7%, the Composite endpoint met ([1]; 10 mg/day orally once/day as L-lysine dihydrate salt) was 79% and the “ALP ≤ ULN” value ([1]; 10 mg/day orally once/day) was 21%. For the same molecule, the “Mean change in ALT” value ([1]; 10 mg/day orally once/day) was −21%, the “Mean change in TBIL” value ([1]; 10 mg/day orally once/day) was −9% and the “Mean change in ALP” value ([1]; 10 mg/day orally once/day) was −45%. For the same molecule, the “biochemical markers of cholestasis” value [1, 5] was “meaningful improvement”, the safety and tolerability [1, 5] was “safe, well tolerated” and the ALP (subjects with PSC) was “dose-related reductions”. The PSC-related symptoms (subjects with PSC) was “improvements”, the “ALP and GGT” value [2] was “statistically significant decreases” and the ALT [2] was “statistically significant decrease”. For the same molecule, the total bilirubin levels [2] was “stable”.

In the case of `CC[C@H]1[C@@H](O)[C@@H]2[C@H](CC[C@]3(C)[C@@H]([C@H](C)CCC(=O)O)CC[C@@H]23)[C@@]2(C)CC[C@@H](O)C[C@@H]12` [OCA, 6α-ethylchenodeoxycholic acid], the “patients with severe pruritus” value (PBC patients [3]; OCALIVA 10 mg arm) is listed as 23% and the “patients with severe pruritus” value (PBC patients [3]; OCALIVA titration arm) is listed as 19%.

In the case of `C[C@H](CCC(=O)O)[C@H]1CC[C@H]2[C@@H]3[C@@H](O)C[C@@H]4C[C@H](O)CC[C@]4(C)[C@H]3CC[C@]12C` [UDCA, ursodeoxycholic acid], the “patients reported to be intolerant to treatment” value (PBC patients [4]) is given as “about 5%”.
